SMILES strings stand for the structures. Some results are limits rather than exact numbers.

The target in the assay is T1, full length AKT E17K (Homo sapiens, UniProt P31749, E17K).
T1 construct: host or cells: HEK-293 (ATCC CRL-1573)
T1 sequence (P31749 whole entry E17K): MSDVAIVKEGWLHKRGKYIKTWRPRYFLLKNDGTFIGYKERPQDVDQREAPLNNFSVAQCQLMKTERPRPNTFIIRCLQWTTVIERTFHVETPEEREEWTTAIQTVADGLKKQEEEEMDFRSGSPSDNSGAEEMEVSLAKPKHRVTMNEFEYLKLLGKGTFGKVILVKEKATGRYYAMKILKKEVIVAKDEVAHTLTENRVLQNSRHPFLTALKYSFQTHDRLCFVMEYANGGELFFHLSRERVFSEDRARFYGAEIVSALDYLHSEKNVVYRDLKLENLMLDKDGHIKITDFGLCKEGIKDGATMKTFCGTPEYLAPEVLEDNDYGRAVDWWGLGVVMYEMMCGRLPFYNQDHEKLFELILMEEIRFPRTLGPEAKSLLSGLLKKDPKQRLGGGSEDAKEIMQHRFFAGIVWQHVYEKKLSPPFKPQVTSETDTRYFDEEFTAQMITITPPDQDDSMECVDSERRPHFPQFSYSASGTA
Nature of the assay: NanoBRET Target Engagement (TE) Assay. Particulars: competitive displacement of tracer in cells, read-out: AKT1 E17K IC50. Type of assay: cell-based. Summed up: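 Compound and tracer incubated 2 h before luminescence at donor 450 nm and acceptor 600 nm, with extracellular signal inhibited. EC50 by sigmoidal variable-slope regression.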
(In general: BRET reads energy transfer from a luciferase to a nearby fluorophore.)
A word on the IC50: it is the concentration that inhibits the measured activity by half. On to `[2H]C([2H])(F)n1cc(-c2ccc3nc(-c4cccnc4N)n(-c4ccc(CN5CCC(Nc6ccnc(C#N)n6)CC5)cc4)c3n2)ccc1=O` [Example 624, 4-((1-(4-(2-(2-Aminopyridin-3-yl)-5-(1-(fluoromethyl-d2)-6-oxo-1,6-dihydropyridin-3-yl)-3H-imidazo[4,5-b]pyridin-3-yl)benzyl)piperidin-4-yl)amino)pyrimidine-2-carbonitrile], for which the IC50 was in the range of 15 to 60 nM. For the compound `CCn1cc(-c2ccc3nc(-c4cccnc4N)n(-c4ccc(CN5CCC(Nc6ccnc(C#N)n6)CC5)cc4)c3n2)nn1` [Example 625, 4-((1-(4-(2-(2-Aminopyridin-3-yl)-5-(1-ethyl-1H-1,2,3-triazol-4-yl)-3H-imidazo[4,5-b]pyridin-3-yl)benzyl)piperidin-4-yl)amino)pyrimidine-2-carbonitrile], the IC50 is < 15 nM. `N#CCn1ncc(-c2ccc3nc(-c4cccnc4N)n(-c4ccc(CN5CCC(Nc6ccnc(C#N)n6)CC5)cc4)c3n2)n1` [Example 626, 4-((1-(4-(2-(2-Aminopyridin-3-yl)-5-(2-(cyanomethyl)-2H-1,2,3-triazol-4-yl)-3H-imidazo[4,5-b]pyridin-3-yl)benzyl)piperidin-4-yl)amino)pyrimidine-2-carbonitrile]: the IC50 was < 15 nM.

As for `N#Cc1nccc(NC2CCN(Cc3ccc(-n4c(-c5nccnc5N)nc5ccc(-c6cnn(CF)n6)nc54)cc3)CC2)n1` [Example 627, 4-((1-(4-(2-(3-Aminopyrazin-2-yl)-5-(2-(fluoromethyl)-2H-1,2,3-triazol-4-yl)-3H-imidazo[4,5-b]pyridin-3-yl)benzyl)piperidin-4-yl)amino)pyrimidine-2-carbonitrile], the IC50 was < 15 nM. Regarding `N#Cc1nccc(NC2CCN(Cc3ccc(-n4c(-c5nccnc5N)nc5ccc(-c6cn(CF)nn6)nc54)cc3)CC2)n1` [Example 628, 4-((1-(4-(2-(3-Aminopyrazin-2-yl)-5-(1-(fluoromethyl)-1H-1,2,3-triazol-4-yl)-3H-imidazo[4,5-b]pyridin-3-yl)benzyl)piperidin-4-yl)amino)pyrimidine-2-carbonitrile], the IC50 is < 15 nM. With `CCn1ncc(-c2ccc3nc(-c4nccnc4N)n(-c4ccc(CN5CCC(Nc6ccnc(C#N)n6)CC5)cc4)c3n2)n1` [Example 629, 4-((1-(4-(2-(3-Aminopyrazin-2-yl)-5-(2-ethyl-2H-1,2,3-triazol-4-yl)-3H-imidazo[4,5-b]pyridin-3-yl)benzyl)piperidin-4-yl)amino)pyrimidine-2-carbonitrile] the figure was < 15 nM; with `CC(C)n1ncc(-c2ccc3nc(-c4nccnc4N)n(-c4ccc(CN5CCC(Nc6ccnc(C#N)n6)CC5)cc4)c3n2)n1` [Example 630, 4-((1-(4-(2-(3-Aminopyrazin-2-yl)-5-(2-isopropyl-2H-1,2,3-triazol-4-yl)-3H-imidazo[4,5-b]pyridin-3-yl)benzyl)piperidin-4-yl)amino)pyrimidine-2-carbonitrile], < 15 nM; with `N#Cc1nccc(NC2CCN(Cc3ccc(-n4c(-c5nccnc5N)nc5ccc(-c6cnn(C7CC7)n6)nc54)cc3)CC2)n1` [Example 631, 4-((1-(4-(2-(3-Aminopyrazin-2-yl)-5-(2-cyclopropyl-2H-1,2,3-triazol-4-yl)-3H-imidazo[4,5-b]pyridin-3-yl)benzyl)piperidin-4-yl)amino)pyrimidine-2-carbonitrile], < 15 nM. The same measure for `N#CCn1ncc(-c2ccc3nc(-c4nccnc4N)n(-c4ccc(CN5CCC(Nc6ccnc(C#N)n6)CC5)cc4)c3n2)n1` [Example 632, 4-((1-(4-(2-(3-Aminopyrazin-2-yl)-5-(2-(cyanomethyl)-2H-1,2,3-triazol-4-yl)-3H-imidazo[4,5-b]pyridin-3-yl)benzyl)piperidin-4-yl)amino)pyrimidine-2-carbonitrile]: < 15 nM; for `N#Cc1nccc(NC2CCN(Cc3ccc(-n4c(-c5nccnc5N)nc5ccc(-c6cnn(CC(N)=O)n6)nc54)cc3)CC2)n1` [Example 633, 2-(4-(2-(3-aminopyrazin-2-yl)-3-(4-((4-((2-cyanopyrimidin-4-yl)amino)piperidin-1-yl)methyl)phenyl)-3H-imidazo[4,5-b]pyridin-5-yl)-2H-1,2,3-triazol-2-yl)acetamide]: 15 to 60 nM. The same measure for `[2H]c1nn(C)nc1-c1ccc2nc(-c3nccnc3N)n(-c3ccc(CN4CCC(Nc5ccnc(C#N)n5)CC4)cc3)c2n1` [Example 634, 4-((1-(4-(2-(3-Aminopyrazin-2-yl)-5-(2-methyl-2H-1,2,3-triazol-4-yl-5-d)-3H-imidazo[4,5-b]pyridin-3-yl)benzyl)piperidin-4-yl)amino)pyrimidine-2-carbonitrile]: < 15 nM; for `Cc1nn(C)nc1-c1ccc2nc(-c3nccnc3N)n(-c3ccc(CN4CCC(Nc5ccnc(C#N)n5)CC4)cc3)c2n1` [Example 635, 4-((1-(4-(2-(3-Aminopyrazin-2-yl)-5-(2,5-dimethyl-2H-1,2,3-triazol-4-yl)-3H-imidazo[4,5-b]pyridin-3-yl)benzyl)piperidin-4-yl)amino)pyrimidine-2-carbonitrile]: 15 to 60 nM.

For the compound `COc1ccc(-c2ccc3nc(-c4nccnc4N)n(-c4ccc(CN5CCC(Nc6ccnc(C#N)n6)CC5)cc4)c3n2)cn1` [Example 636, 4-((1-(4-(2-(3-Aminopyrazin-2-yl)-5-(6-methoxypyridin-3-yl)-3H-imidazo[4,5-b]pyridin-3-yl)benzyl)piperidin-4-yl)amino)pyrimidine-2-carbonitrile], the IC50 was < 15 nM. With `[2H]C([2H])([2H])Oc1ccc(-c2ccc3nc(-c4nccnc4N)n(-c4ccc(CN5CCC(Nc6ccnc(C#N)n6)CC5)cc4)c3n2)cn1` [Example 637, 4-((1-(4-(2-(3-aminopyrazin-2-yl)-5-(6-(methoxy-d3)pyridin-3-yl)-3H-imidazo[4,5-b]pyridin-3-yl)benzyl)piperidin-4-yl)amino)pyrimidine-2-carbonitrile] the figure was < 15 nM. For `[2H]C([2H])([2H])Oc1ccc(-c2ccc3nc(-c4nccnc4N)n(-c4ccc(CN5CCC(Nc6ccnc(C#N)n6)CC5)cc4)c3n2)nc1` [Example 638, 4-((1-(4-(2-(3-Aminopyrazin-2-yl)-5-(5-(methoxy-d3)pyridin-2-yl)-3H-imidazo[4,5-b]pyridin-3-yl)benzyl)piperidin-4-yl)amino)pyrimidine-2-carbonitrile], the IC50 is < 15 nM. Regarding `N#Cc1nccc(NC2CCN(Cc3ccc(-n4c(-c5nccnc5N)nc5ccc(-c6ccc(OCF)nc6)nc54)cc3)CC2)n1` [Example 639, 4-((1-(4-(2-(3-Aminopyrazin-2-yl)-5-(6-(fluoromethoxy)pyridin-3-yl)-3H-imidazo[4,5-b]pyridin-3-yl)benzyl)piperidin-4-yl)amino)pyrimidine-2-carbonitrile], the IC50 is < 15 nM.

Take `[2H]C([2H])(F)Oc1ccc(-c2ccc3nc(-c4nccnc4N)n(-c4ccc(CN5CCC(Nc6ccnc(C#N)n6)CC5)cc4)c3n2)cn1` [Example 640, 4-((1-(4-(2-(3-Aminopyrazin-2-yl)-5-(6-(fluoromethoxy-d2)pyridin-3-yl)-3H-imidazo[4,5-b]pyridin-3-yl)benzyl)piperidin-4-yl)amino)pyrimidine-2-carbonitrile]: the IC50 was < 15 nM. As for `N#Cc1nccc(NC2CCN(Cc3ccc(-n4c(-c5cccnc5N)nc5ccc(-c6ccc(OC7CC7)nc6)nc54)cc3)CC2)n1` [Example 641, 4-((1-(4-(2-(2-Aminopyridin-3-yl)-5-(6-cyclopropoxypyridin-3-yl)-3H-imidazo[4,5-b]pyridin-3-yl)benzyl)piperidin-4-yl)amino)pyrimidine-2-carbonitrile], the IC50 is < 15 nM.

On to `CC(C)Oc1ccc(-c2ccc3nc(-c4cccnc4N)n(-c4ccc(CN5CCC(Nc6ccnc(C#N)n6)CC5)cc4)c3n2)cn1` [Example 642, 4-((1-(4-(2-(2-Aminopyridin-3-yl)-5-(6-isopropoxypyridin-3-yl)-3H-imidazo[4,5-b]pyridin-3-yl)benzyl)piperidin-4-yl)amino)pyrimidine-2-carbonitrile], for which the IC50 was < 15 nM. On to `CC(C)c1ccc(-c2ccc3nc(-c4cccnc4N)n(-c4ccc(CN5CCC(Nc6ccnc(C#N)n6)CC5)cc4)c3n2)cn1` [Example 643, 4-((1-(4-(2-(2-Aminopyridin-3-yl)-5-(6-isopropylpyridin-3-yl)-3H-imidazo[4,5-b]pyridin-3-yl)benzyl)piperidin-4-yl)amino)pyrimidine-2-carbonitrile], for which the IC50 is < 15 nM. On to `N#Cc1nccc(NC2CCN(Cc3ccc(-n4c(-c5cccnc5N)nc5ccc(-c6ccc(C7CC7)cn6)nc54)cc3)CC2)n1` [Example 644, 4-((1-(4-(2-(2-Aminopyridin-3-yl)-5-(5-cyclopropylpyridin-2-yl)-3H-imidazo[4,5-b]pyridin-3-yl)benzyl)piperidin-4-yl)amino)pyrimidine-2-carbonitrile], for which the IC50 is < 15 nM. Consider `N#Cc1nccc(NC2CCN(Cc3ccc(-n4c(-c5cccnc5N)nc5ccc(-c6ccc(C(F)F)nc6)nc54)cc3)CC2)n1` [Example 645, 4-((1-(4-(2-(2-Aminopyridin-3-yl)-5-(6-(difluoromethyl)pyridin-3-yl)-3H-imidazo[4,5-b]pyridin-3-yl)benzyl)piperidin-4-yl)amino)pyrimidine-2-carbonitrile], for which the IC50 is < 15 nM. On to `N#Cc1nccc(NC2CCN(Cc3ccc(-n4c(-c5cccnc5N)nc5ccc(-c6ccc(C(F)(F)F)nc6)nc54)cc3)CC2)n1` [Example 646, 4-((1-(4-(2-(2-Aminopyridin-3-yl)-5-(6-(trifluoromethyl)pyridin-3-yl)-3H-imidazo[4,5-b]pyridin-3-yl)benzyl)piperidin-4-yl)amino)pyrimidine-2-carbonitrile], for which the IC50 was < 15 nM. As to `CCc1ccc(-c2ccc3nc(-c4cccnc4N)n(-c4ccc(CN5CCC(Nc6ccnc(C#N)n6)CC5)cc4)c3n2)nc1` [Example 647, 4-((1-(4-(2-(2-Aminopyridin-3-yl)-5-(5-ethylpyridin-2-yl)-3H-imidazo[4,5-b]pyridin-3-yl)benzyl)piperidin-4-yl)amino)pyrimidine-2-carbonitrile], the IC50 was < 15 nM.

These data come from US12209087B2, “AKT1 modulators” (Alterome Therapeutics, Inc., priority 2022, dated 2025).
